The text below walks through data of US20240041038A1 (priority 2020, published 2024).

For data set [1], the system named is corn earworm (Helicoverpa zea). To be noted: in vivo.
In data set [2] the test system is corn earworm (Helicoverpa zea). The note with it: in vivo. This is another data set of the same source.
The subject of data set [3] is lesser mealworm (Alphitobius diaperinus). The experiment in a line: whole plant or invertebrate. The note with it: 96 h, read-out: mortality rate.
Data set [4] relates to beet armyworm (Spodoptera exigua). The note with it: in vivo.

Bridges are numbered along the chain shown (N, C = ends). Where no end group is shown, it is not given here.

For `O=C(NC(=O)c1c(F)cccc1F)Nc1ccc(OC(F)(F)C(F)OC(F)(F)F)c(Cl)c1` (centres unmarked) [Novaluron], in data set [1], the “greater than additive insecticidal effect when combined with U+2-ACTX-Hv1a” value is on record as “Novaluron*”.

For `C/C=C(\C)C(=O)O[C@H]1C[C@@H](OC(C)=O)[C@@]2(C(=O)OC)CO[C@H]3[C@@H](O)[C@@](C)([C@]45O[C@@]4(C)[C@H]4C[C@@H]5O[C@@H]5OC=C[C@@]54O)[C@H]4[C@]1(CO[C@]4(O)C(=O)OC)[C@@H]32` [Azadirachtin], the mortality (usually the percentage killed) in data set [2] is given as 37.5%.

As to `OB(O)O` [boric acid], the mortality at 2500 µg/mL in data set [3] is 10.3%.

For the molecule “GSCADINGACKSDCDCCGDSVTCDCYWSDSCKCRESNFKIGMAIRKKFC (disulfide 3-17, 10-23, 14-49, 16-33, 25-31) [Γ-CNTX-Pn1a]”, in data set [4], the mortality worked out at 6% and the mortality rate is reported as 3%.
